Test results: patent US10294202B2, “Pyrrolidinones as herbicides” (FMC Corporation, priority 2013, dated 2019)

Key:
[1] = system: foxtail, green; assay: Test D pre-/postemergence herbicide test; type: in vivo, Setaria viridis; conditions: for Plant response rating, Foxtail, Green: scale 0 to 100 (0 no effect, 100 complete control); for Plant response rating: Foxtail, Green, scale 0 to 100
How it was run: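 Postemergence sprays were made on plants at the 1- to 4-leaf stage in peat-based medium, and preemergence sprays on seeds planted in silt loam. The formulation was a non-phytotoxic solvent mixture containing surfactant. Plants were compared with controls after 7 to 21 days and rated visually on a 0–100 scale.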

[2] = system: windgrass; assay: Test D pre-/postemergence herbicide test; type: in vivo, Apera spica-venti; conditions: for Plant response rating, Windgrass: Preemergence, scale 0 to 100 (0 no effect, 100 complete control); for Plant response rating: Postemergence, Windgrass, scale 0 to 100
From the text: Seeds of plant species selected from bluegrass (annual bluegrass, Poa annua), blackgrass (Alopecurus myosuroides), canarygrass (littleseed canarygrass, Phalaris minor), chickweed (common chickweed, Stellaria media), galium (catchweed bedstraw, Galium aparine), bromegrass, downy (downy bromegrass, Bromus tectorum), field poppy (Papaver rhoeas), field violet (Viola arvensis), foxtail, green (green foxtail, Setaria viridis), deadnettle (henbit deadnettle, Lamium amplexicaule), ryegrass, Italian (Italian ryegrass, Lolium multiflorum), kochia (Kochia scoparia), lambsquarters (Chenopodium album), oilseed rape (Brassica napus), pigweed (Amaranthus retroflexus), chamomile (scentless chamomile, Matricaria inodora), Russian thistle (Salsola kali), speedwell (bird's-eye speedwell, Veronica persica), barley, spring (spring barley, Hordeum vulgare), wheat, spring (spring wheat, Triticum aestivum), buckwheat, wild (wild buckwheat, Polygonum convolvulus), mustard, wild (wild mustard, Sinapis arvensis), oat, wild (wild oat, Avena fatua), radish, wild (wild radish, Raphanus raphanistrum), […]), barley, winter (winter barley, Hordeum vulgare), and wheat, winter (winter wheat, Triticum aestivum) were planted into a silt loam soil and treated preemergence with test chemicals formulated in a non-phytotoxic solvent mixture which included a surfactant. At the same time, these species were planted in pots containing Redi-Earth® planting medium (Scotts Company, 14111 Scottslawn Road, Marysville, Ohio 43041) comprising spaghnum peat moss, vermiculite, wetting agent and starter nutrients and treated with postemergence applications of the test chemicals formulated in the same manner. Plants ranged in height from 2 to 18 cm (1- to 4-leaf stage). Treated plants and controls were maintained in a controlled growth environment for 7 to 21 days after which time all species were compared to controls and visually evaluated. Plant response ratings, summarized in Table D, are based on a scale of 0 to 100 where 0 is no effect and 100 is complete control. A dash (-) response means no test result.

[3] = system: watergrass, late; assay: Test F flood (paddy) test; type: in vivo, Echinochloa oryzicola; conditions: 21 d, scale 0-100
From the text: Three plastic pots (ca. 16-cm diameter) per rate were partially filled with sterilized Tama silt loam soil comprising a 35:50:15 ratio of sand, silt and clay and 2.6% organic matter. Separate plantings for each of the three pots were as follows. Seeds from the U.S. of monochoria (Monochoria vaginalis), sedge, umbrella (small-flower umbrella sedge, Cyperus difformis), bulrush, […] bulrush, Scirpus juncoides), and […] (purple […] coccinea), were planted into one 16-cm pot for each rate. Seeds from the U.S. of flatsedge, rice (rice flatsedge, Cyperus iria), sprangletop, Brdd. (bearded sprangletop, Leptochloa fascicularis), one stand of 9 or 10 water seeded rice seedlings (Rice, W.S. Jap, Oryza sativa cv. 'Japonica-[…]' or Rice, W.S. Ind, 'Indica'), and two stands of 3 or 4 seedlings of rice, transplanted (transplanted rice, Oryza sativa cv. 'Japonica-[…]') were planted into one 16-cm pot for each rate. Seeds from the U.S. of barnyardgrass (Echinochloa crus-galli), […] (common […], Alisma plantago-aquatica), and watergrass, late (late watergrass, Echinochloa oryzicola) were planted into one 16-cm pot for each rate. Plantings were sequential so that crop and weed species were at the 2.0 to 2.5-leaf stage at time of treatment. Potted plants were grown in a greenhouse with day/night temperature settings of 30/27° C., and supplemental balanced lighting was provided to maintain a 16-h photoperiod. Test pots were maintained in the greenhouse until test completion. At time of treatment, test pots were flooded to 3 cm above the soil surface, treated by application of test compounds directly to the paddy water, and then maintained at that water depth for the duration of the test. Effects of treatments on rice and weeds were visually evaluated by comparison to untreated controls after 21 d. Plant response ratings, summarized in Table F, are based on a scale of 0 to 100 where 0 is no effect and 100 is complete control. A dash (-) response means no test result.

[4] = system: surinam grass; assay: Test C pre-/postemergence herbicide test; type: in vivo, Brachiaria decumbens
From the text: Seeds of plant species selected from blackgrass (Alopecurus myosuroides), ryegrass, Italian (Italian ryegrass, Lolium multiflorum), wheat (winter wheat, Triticum aestivum), galium (catchweed bedstraw, Galium aparine), corn (Zea mays), crabgrass, large (large crabgrass, Digitaria sanguinalis), foxtail, giant (giant foxtail, Setaria faberii), johnsongrass (Sorghum halepense), lambsquarters (Chenopodium album), morningglory (Ipomoea coccinea), nutsedge, yellow (yellow nutsedge, Cyperus esculentus), pigweed (Amaranthus retroflexus), ragweed (common ragweed, Ambrosia elatior), soybean (Glycine max), barnyardgrass (Echinochloa crus-galli), oilseed rape (Brassica napus), waterhemp (common waterhemp, Amaranthus rudis), kochia (Kochia scoparia), oat, wild (wild oat, Avena fatua), surinam grass (Brachiaria decumbens), foxtail, green (green foxtail, Setaria viridis), goosegrass (Eleusine indica), bromegrass, downy (downy bromegrass, Bromus tectorum), nightshade (eastern black nightshade, Solanum ptycanthum), cocklebur (common cocklebur, Xanthium strumarium), cupgrass, woolly (woolly cupgrass, Eriochloa villosa), bermudagrass (Cynodon dactylon), sunflower, (common oilseed sunflower, Helianthus annuus), Russian thistle (Salsola kali) and velvetleaf (Abutilon theophrasti) were planted into a blend of loam soil and sand and treated preemergence with test chemicals formulated in a non-phytotoxic solvent mixture which included a surfactant. At the same time, plants selected from these crop and weed species and also barley (winter barley, Hordeum vulgare), […]), chickweed (common chickweed, Stellaria media), deadnettle (henbit deadnettle, Lamium amplexicaule), and canarygrass (littleseed canarygrass, Phalaris minor) were planted in pots containing Redi-Earth® planting medium (Scotts Company, 14111 Scottslawn Road, Marysville, Ohio 43041) comprising spaghnum peat moss, vermiculite, wetting agent and starter nutrients and treated with postemergence applications of test chemicals formulated in the same manner. Plants ranged in height from 2 to 18 cm (1- to 4-leaf stage) for postemergence treatments. Treated plants and controls were maintained in a greenhouse for 13 to 15 days, after which time all species were compared to controls and visually evaluated. Plant response ratings, summarized in Table C, are based on a scale of 0 to 100 where 0 is no effect and 100 is complete control. A dash (-) response means no test result.

[5] = Preemergence, 62 g ai/ha, scale 0 to 100
[6] = Preemergence, 125 g ai/ha, scale 0 to 100 (0 no effect, 100 complete control)
[7] = Postemergence, 31 g ai/ha, scale 0 (no effect) to 100 (complete control)
[8] = Postemergence, 62 g ai/ha, scale 0 to 100 (0 no effect, 100 complete control)
[9] = Postemergence, 125 g ai/ha, scale 0 to 100 (0 no effect, 100 complete control)
[10] = Postemergence, 250 g ai/ha, scale 0 to 100 (0 no effect, 100 complete control)

SMILES: O=C1NC[C@H](c2cccc(C(F)(F)F)c2)[C@H]1C(=O)Nc1cccc(F)c1F [Compound 206]
- Plant response rating, Foxtail, Green ([1]; Preemergence, 62 g ai/ha): 95
- Plant response rating, Foxtail, Green ([1]; Preemergence, 125 g ai/ha): 98
- Plant response rating, Foxtail, Green ([1]; Preemergence, 31 g ai/ha): 85
- Plant response rating ([1]; Preemergence, 250 g ai/ha): 98
- Plant response rating, Windgrass ([2]; 62 g ai/ha): 75
- Plant response rating, Windgrass ([2]; 125 g ai/ha): 90
- Plant response rating, Windgrass ([2]; 31 g ai/ha): 75
- Plant response rating, Windgrass ([2]; 250 g ai/ha): 90
- Plant response rating, Watergrass, Late ([3]; 64 g ai/ha): 90
- Plant response rating, Watergrass, Late ([3]; 125 g ai/ha): 100
- Plant response rating, Watergrass, Late ([3]; 250 g ai/ha): 100
- Plant response rating, Watergrass, Late ([3]; 500 g ai/ha): 100

SMILES: O=C1NCC(c2ccc(F)c(F)c2)C1C(=O)Nc1cccc(F)c1F (racemic) [Compound 101]
- Plant response rating, Watergrass, Late ([3]; 64 g ai/ha): 65
- Plant response rating, Watergrass, Late ([3]; 125 g ai/ha): 75
- Plant response rating, Watergrass, Late ([3]; 250 g ai/ha): 85
- Plant response rating, Watergrass, Late ([3]; 500 g ai/ha): 85

SMILES: O=C1NC[C@H](c2cccc(C(F)(F)F)c2)[C@H]1C(=O)Nc1ccccc1F [Compound 204, (3R,4S)—N-(2-fluorophenyl)-2-oxo-4-[3-(trifluoromethyl)phenyl]-3-pyrrolidinecarboxamide]
- Plant response rating, Foxtail, Green ([1]; Preemergence, 62 g ai/ha): 98
- Plant response rating, Foxtail, Green ([1]; Preemergence, 125 g ai/ha): 98
- Plant response rating, Foxtail, Green ([1]; Preemergence, 31 g ai/ha): 90
- Plant response rating ([1]; Preemergence, 250 g ai/ha): 100
- Plant response rating, Windgrass ([2]; 62 g ai/ha): 65
- Plant response rating, Windgrass ([2]; 125 g ai/ha): 85
- Plant response rating, Windgrass ([2]; 31 g ai/ha): 50
- Plant response rating, Windgrass ([2]; 250 g ai/ha): 95
- Plant response rating, Watergrass, Late ([3]; 125 g ai/ha): 70
- Plant response rating, Watergrass, Late ([3]; 250 g ai/ha): 98
- Plant response rating, Watergrass, Late ([3]; 500 g ai/ha): 98

SMILES: O=C1NCCC1C(=O)N(c1ccc(F)c(F)c1)c1ccccc1F (stereo not shown) [Compound 5, N-(3,4-difluorophenyl)-N-(2-fluorophenyl)-2-oxo-3-pyrrolidinecarboxamide]
- Plant response rating, Surinam Grass [4, 5]: 85
- Plant response rating, Surinam Grass [4, 6]: 95
- Plant response rating, Watergrass, Late ([3]; 125 g ai/ha): 55
- Plant response rating, Watergrass, Late ([3]; 250 g ai/ha): 70
- Plant response rating, Watergrass, Late ([3]; 500 g ai/ha): 75
- Plant response rating, Watergrass, Late ([3]; 1000 g ai/ha): 100
- Plant response rating, Watergrass, Late ([3]; 2000 g ai/ha): 100

SMILES: O=C1NCC(c2ccc(F)c(F)c2)C1C(=O)Nc1cccc(F)c1F (stereo not shown) [Compound 17, N-(2,3-difluorophenyl)-4-(3,4-difluorophenyl)-2-oxo-3-pyrrolidinecarboxamide]
- Plant response rating, Surinam Grass [4, 7]: 0
- Plant response rating, Surinam Grass [4, 8]: 0
- Plant response rating, Surinam Grass [4, 9]: 45
- Plant response rating, Surinam Grass [4, 10]: 60
- Plant response rating, Surinam Grass [4, 5]: 90
- Plant response rating, Surinam Grass [4, 6]: 90
- Plant response rating ([1]; Postemergence, 16 g ai/ha): 0
- Plant response rating ([1]; Postemergence, 31 g ai/ha): 0
- Plant response rating ([1]; Postemergence, 62 g ai/ha): 0
- Plant response rating ([1]; Postemergence, 125 g ai/ha): 0
- Plant response rating ([1]; Postemergence, 250 g ai/ha): 0
- Plant response rating ([2]; 16 g ai/ha): 0
- Plant response rating ([2]; 31 g ai/ha): 0
- Plant response rating ([2]; 62 g ai/ha): 0
- Plant response rating ([2]; 125 g ai/ha): 0
- Plant response rating ([2]; 250 g ai/ha): 0
- Plant response rating, Watergrass, Late ([3]; 125 g ai/ha): 80
- Plant response rating, Watergrass, Late ([3]; 250 g ai/ha): 85
- Plant response rating, Watergrass, Late ([3]; 500 g ai/ha): 90
- Plant response rating, Watergrass, Late ([3]; 1000 g ai/ha): 90
- Plant response rating, Watergrass, Late ([3]; 2000 g ai/ha): 95

SMILES: CN1CC(c2ccc(F)c(F)c2)C(C(=O)Nc2cccc(F)c2F)C1=O (stereo not shown) [Compound 303]
- Plant response rating, Watergrass, Late ([3]; 62 g ai/ha): 95
- Plant response rating, Watergrass, Late ([3]; 125 g ai/ha): 95
- Plant response rating, Watergrass, Late ([3]; 250 g ai/ha): 100
- Plant response rating, Watergrass, Late ([3]; 500 g ai/ha): 100

SMILES: O=C1NCC(c2cc(F)c(F)cc2F)C1C(=O)Nc1cccc(F)c1F (stereo not shown) [Compound 50]
- Plant response rating, Surinam Grass [4, 7]: 5
- Plant response rating, Surinam Grass [4, 8]: 5
- Plant response rating, Surinam Grass [4, 9]: 5
- Plant response rating, Surinam Grass [4, 10]: 15
- Plant response rating ([1]; Postemergence, 16 g ai/ha): 0
- Plant response rating ([1]; Postemergence, 31 g ai/ha): 0
- Plant response rating ([1]; Postemergence, 62 g ai/ha): 0
- Plant response rating ([1]; Postemergence, 125 g ai/ha): 0
- Plant response rating, Foxtail, Green ([1]; Preemergence, 62 g ai/ha): 50
- Plant response rating, Foxtail, Green ([1]; Preemergence, 16 g ai/ha): 0
- Plant response rating, Foxtail, Green ([1]; Preemergence, 31 g ai/ha): 0
- Plant response rating ([1]; Preemergence, 125 g ai/ha): 40
- Plant response rating ([2]; 16 g ai/ha): 0
- Plant response rating ([2]; 31 g ai/ha): 0
- Plant response rating ([2]; 62 g ai/ha): 0
- Plant response rating ([2]; 125 g ai/ha): 0
- Plant response rating, Windgrass ([2]; 62 g ai/ha): 5
- Plant response rating, Windgrass ([2]; 125 g ai/ha): 0
- Plant response rating, Windgrass ([2]; 16 g ai/ha): 0
- Plant response rating, Windgrass ([2]; 31 g ai/ha): 0

SMILES: O=C1NCC(c2cccc(C(F)F)c2)C1C(=O)Nc1ccccc1F (racemic) [Compound 210]
- Plant response rating, Watergrass, Late ([3]; 125 g ai/ha): 55
- Plant response rating, Watergrass, Late ([3]; 250 g ai/ha): 75
- Plant response rating, Watergrass, Late ([3]; 500 g ai/ha): 90
